Source: ChEMBL document CHEMBL3259791, “Discovery of (E)-3-((styrylsulfonyl)methyl)pyridine and (E)-2-((styrylsulfonyl)methyl)pyridine derivatives as anticancer agents: synthesis, structure-activity relationships, and biological activities” (J Med Chem, 2014)
Calls of active or inactive are those of the source. The calls are words filed in the database; no cut-off is given here.

Key:
[1] = test system: MCF7; assay: Antiproliferative activity against ER positive human MCF7 cells assessed as cell growth inhibition after 72 hrs by MTT assay; type: functional; settings: MCF7, 72 h
[2] = Elimination half life in mouse at 10 mg/kg, po after 24 hrs; type: ADME, organism-based; set-up: dose 10 mg/kg, route oral; settings: in vivo, read-out: beta t1/2 (converted)
[3] = Apparent permeability across apical to basolateral side in human Caco2 cells; type: ADME, cell-based; settings: Caco-2
[4] = test system: MCF7; assay: Antiproliferative activity against human MCF7 cells assessed as cell growth inhibition after 72 hrs by MTT assay; type: functional; settings: MCF7, 72 h
[5] = test system: HCT-116; assay: Antiproliferative activity against human HCT116 cells assessed as cell growth inhibition after 72 hrs by MTT assay; type: functional; settings: HCT-116, 72 h
[6] = test system: WI-38; assay: Antiproliferative activity against human WI38 cells assessed as cell growth inhibition after 72 hrs by MTT assay; type: functional; settings: WI-38, 72 h
[7] = Aqueous solubility of the compound by turbidimetric solubility assay; type: physicochemical; settings: buffer
[8] = Dissociation constant, pKa of the compound by pH-metric method; type: physicochemical
[9] = Antiproliferative activity against human PANC1 cells assessed as cell growth inhibition after 72 hrs by MTT assay; type: functional; settings: PANC-1, 72 h
[10] = Half life in rat liver microsomes; type: ADME
[11] = Octanol-buffer partition coefficient, log D of the compound at pH 7.4 by shake-flask method; type: physicochemical
[12] = test system: MDA-MB-231; assay: Antiproliferative activity against ER negative human MDA-MB-231 cells assessed as cell growth inhibition after 72 hrs by MTT assay; type: functional; settings: MDA-MB-231, 72 h
[13] = Cmax in mouse at 10 mg/kg, po after 24 hrs; type: ADME, organism-based; set-up: dose 10 mg/kg, route oral; settings: in vivo
[14] = Apparent permeability across basolateral to apical side in human Caco2 cells; type: ADME, cell-based; settings: Caco-2
[15] = AUC (0 to t) in mouse at 10 mg/kg, po after 24 hrs; type: ADME, organism-based; set-up: time < 24 hr, dose 10 mg/kg, route oral; settings: plasma
[16] = test system: HCT-116; assay: Antitumor activity against human HCT116 cells xenografted in mouse assessed as delay in tumor growth at 33.3 mg/kg, ip daily 5 days/week for 2 weeks; type: functional, organism-based; set-up: dose 33.3 mg/kg
[17] = test system: HeLa; assay: Antiproliferative activity against human HeLa cells assessed as cell growth inhibition after 72 hrs by MTT assay; type: functional
[18] = test system: A2780; assay: Antiproliferative activity against human A2780 cells assessed as cell growth inhibition after 72 hrs by MTT assay; type: functional; settings: A2780, 72 h
[19] = test system: HCT-116; assay: Antitumor activity against human HCT116 cells xenografted in mouse assessed as delay in tumor growth at 100 mg/kg, ip daily 5 days/week for 2 weeks; type: functional, organism-based; set-up: dose 100 mg/kg
[20] = Oral bioavailability (0 to t) in mouse at 10 mg/kg after 24 hrs; type: ADME, organism-based; settings: in vivo
[21] = Cmax in mouse at 40 mg/kg, po after 24 hrs; type: ADME, organism-based; set-up: dose 40 mg/kg, route oral; settings: in vivo
[22] = target: Voltage-gated inwardly rectifying potassium channel KCNH2 (Homo sapiens, UniProt Q12809); assay: Inhibition of human ERG expressed in CHO cells
Sequence of Voltage-gated inwardly rectifying potassium channel KCNH2 (Q12809 whole entry): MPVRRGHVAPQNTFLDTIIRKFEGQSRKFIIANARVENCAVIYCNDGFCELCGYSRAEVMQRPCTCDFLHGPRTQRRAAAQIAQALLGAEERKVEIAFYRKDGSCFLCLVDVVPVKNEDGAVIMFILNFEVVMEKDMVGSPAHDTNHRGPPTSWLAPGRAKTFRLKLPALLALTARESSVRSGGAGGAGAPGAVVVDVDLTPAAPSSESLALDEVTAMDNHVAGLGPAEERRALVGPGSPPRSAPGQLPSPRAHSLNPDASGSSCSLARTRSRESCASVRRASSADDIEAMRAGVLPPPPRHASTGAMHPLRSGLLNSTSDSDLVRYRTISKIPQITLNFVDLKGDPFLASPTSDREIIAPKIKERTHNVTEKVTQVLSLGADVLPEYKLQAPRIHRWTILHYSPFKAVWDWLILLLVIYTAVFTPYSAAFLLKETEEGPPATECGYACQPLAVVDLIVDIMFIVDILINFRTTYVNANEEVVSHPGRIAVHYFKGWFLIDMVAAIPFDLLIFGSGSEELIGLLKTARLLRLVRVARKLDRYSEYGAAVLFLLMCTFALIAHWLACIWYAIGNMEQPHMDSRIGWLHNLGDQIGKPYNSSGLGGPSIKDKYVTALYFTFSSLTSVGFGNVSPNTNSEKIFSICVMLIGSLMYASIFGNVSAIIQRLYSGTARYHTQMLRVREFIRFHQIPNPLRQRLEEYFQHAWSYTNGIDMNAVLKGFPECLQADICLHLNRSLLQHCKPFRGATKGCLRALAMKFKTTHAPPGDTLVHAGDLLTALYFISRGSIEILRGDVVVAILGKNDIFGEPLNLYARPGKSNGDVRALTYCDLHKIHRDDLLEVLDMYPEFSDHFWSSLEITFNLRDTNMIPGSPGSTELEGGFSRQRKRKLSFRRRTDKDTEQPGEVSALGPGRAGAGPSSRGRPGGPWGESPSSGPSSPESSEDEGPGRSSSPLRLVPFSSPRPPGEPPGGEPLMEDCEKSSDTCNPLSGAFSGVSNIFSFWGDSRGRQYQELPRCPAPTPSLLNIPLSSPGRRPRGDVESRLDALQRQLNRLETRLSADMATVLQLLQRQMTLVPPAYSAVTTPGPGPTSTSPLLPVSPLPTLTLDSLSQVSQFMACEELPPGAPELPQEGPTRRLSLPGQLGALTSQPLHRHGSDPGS

[23] = test system: PANC-1; assay: Ratio of ON01910 IC50 to compound IC50 for human PANC1 cells; type: functional
[24] = test system: HeLa; assay: Ratio of ON01910 IC50 to compound IC50 for human HeLa cells; type: functional
[25] = test system: MCF7; assay: Ratio of ON01910 IC50 to compound IC50 for ER positive human MCF7 cells; type: functional
[26] = test system: LNCaP; assay: Ratio of ON01910 IC50 to compound IC50 for AR positive human LNCAP cells; type: functional
[27] = Oral bioavailability (0 to infinity) in mouse at 40 mg/kg after 24 hrs; type: ADME, organism-based; settings: in vivo
[28] = test system: LNCaP; assay: Antiproliferative activity against AR positive human LNCAP cells assessed as cell growth inhibition after 72 hrs by MTT assay; type: functional
[29] = test system: DU-145; assay: Ratio of ON01910 IC50 to compound IC50 for AR negative human DU145 cells; type: functional
[30] = test system: A2780; assay: Selectivity ratio of IC50 for human WI38 cells to IC50 for human A2780 cells; type: functional
[31] = test system: LNCaP; assay: Selectivity ratio of IC50 for human WI38 cells to IC50 for AR positive human LNCAP cells; type: functional
[32] = test system: A2780; assay: Ratio of ON01910 IC50 to compound IC50 for human A2780 cells; type: functional
[33] = test system: PANC-1; assay: Selectivity ratio of IC50 for human WI38 cells to IC50 for human PANC1 cells; type: functional
[34] = Elimination half life in mouse at 40 mg/kg, po after 24 hrs; type: ADME, organism-based; set-up: dose 40 mg/kg, route oral; settings: in vivo, read-out: beta t1/2 (converted)
[35] = test system: MCF7; assay: Selectivity ratio of IC50 for human WI38 cells to IC50 for ER positive human MCF7 cells; type: functional
[36] = Oral bioavailability (0 to t) in mouse at 40 mg/kg after 24 hrs; type: ADME, organism-based; settings: in vivo
[37] = test system: DU-145; assay: Antiproliferative activity against AR negative human DU145 cells assessed as cell growth inhibition after 72 hrs by MTT assay; type: functional; settings: DU-145, 72 h
[38] = test system: HCT-116; assay: Ratio of ON01910 IC50 to compound IC50 for human HCT116 cells; type: functional
[39] = test system: HCT-116; assay: Selectivity ratio of IC50 for human WI38 cells to IC50 for human HCT116 cells; type: functional
[40] = test system: WI-38; assay: Selectivity ratio of IC50 for human WI38 cells to IC50 for ER negative human MDA-MB-231 cells; type: functional
[41] = AUC (0 to t) in mouse at 40 mg/kg, po after 24 hrs; type: ADME, organism-based; set-up: time < 24 hr, dose 40 mg/kg, route oral; settings: plasma
[42] = test system: MDA-MB-231; assay: Ratio of ON01910 IC50 to compound IC50 for ER negative human MDA-MB-231 cells; type: functional
[43] = test system: DU-145; assay: Selectivity ratio of IC50 for human WI38 cells to IC50 for AR negative human DU145 cells; type: functional
[44] = test system: HeLa; assay: Selectivity ratio of IC50 for human WI38 cells to IC50 for human HeLa cells; type: functional

## COc1cc(OC)c(/C=C/S(=O)(=O)Cc2cnc(OC)c(NS(C)(=O)=O)c2)c(OC)c1
[1]
  GI50: 780 nM
[2]
  half-life: 3 h
[3]
  Papp A→B: 8.9 ×10⁻⁶ cm/s
[4]
  GI50: 780 nM
[5]
  GI50: 570 nM
[6]
  GI50: > 10000 nM
[7]
  solubility kinetic: > 100 µM
[8]
  pKa: 7.66
[9]
  GI50: 875 nM
[10]
  half-life: 1.17 h
[11]
  logD: 1.52
[12]
  GI50: 671 nM
[13]
  Cmax: 6300 nM
[14]
  Papp B→A: 47.1 ×10⁻⁶ cm/s
[15]
  AUC(0-t) at 24 h: 7.2 µM·h
[16]
  Activity: Active
[17]
  GI50: 682 nM
[18]
  GI50: 317 nM
[19]
  Activity: Active

## CCOC(=O)CNc1nc(CS(=O)(=O)/C=C/c2c(OC)cc(OC)cc2OC)ccc1OC
[4]
  GI50: 5710 nM
[5]
  GI50: 5450 nM
[18]
  GI50: 6910 nM

## CCOC(=O)CNc1cc(CS(=O)(=O)/C=C/c2c(OC)cc(OC)cc2OC)cnc1OC
[4]
  GI50: 940 nM
[5]
  GI50: 517 nM
[18]
  GI50: 409 nM

## COc1cc(OC)c(/C=C/S(=O)(=O)Cc2cnc(OC)c(NCC(N)=O)c2)c(OC)c1
[4]
  GI50: > 10000 nM
[5]
  GI50: 6590 nM

## COc1cc(OC)c(/C=C/S(=O)(=O)Cc2cnc(OC)c([N+](=O)[O-])c2)c(OC)c1
[4]
  GI50: 5220 nM
[5]
  GI50: 7430 nM
[18]
  GI50: 7210 nM

## COc1cc(OC)c(/C=C/S(=O)(=O)Cc2ccc(OC)c(NCC(=O)[O-])c2)c(OC)c1.[Na+] [RIGOSERTIB SODIUM]
[20]
  bioavailability: 9%
[2]
  half-life: 2.6 h
[13]
  Cmax: 400 nM
[15]
  AUC(0-t) at 24 h: 1 µM·h

## COc1cc(OC)c(/C=C/S(=O)(=O)Cc2cnc(OC)c(N)c2)c(OC)c1
[1]
  GI50: 6 nM
[21]
  Cmax: 3000 nM
[22]
  IC50: > 25000 nM
[23]
  Ratio IC50: 10
[24]
  Ratio IC50: 10
[25]
  Ratio IC50: 10
[26]
  Ratio IC50: 10
[27]
  bioavailability: 100%
[28]
  GI50: 3 nM
[29]
  Ratio IC50: 10
[30]
  Ratio IC50: >1400
[31]
  Ratio IC50: >1400
[3]
  Papp A→B: 42.3 ×10⁻⁶ cm/s
[32]
  Ratio IC50: 10
[33]
  Ratio IC50: >1400
[4]
  GI50: 6 nM
[5]
  GI50: 5 nM
[34]
  half-life: 61.8 h
[6]
  GI50: > 10000 nM
[7]
  solubility kinetic: > 100 µM
[35]
  Ratio IC50: >1400
[36]
  bioavailability: 28%
[8]
  pKa: 2.39
[37]
  GI50: 5 nM
[9]
  GI50: < 1 nM
[38]
  Ratio IC50: 10
[10]
  half-life: 0.333 h
[39]
  Ratio IC50: >1400
[11]
  logD: 2.34
[12]
  GI50: 6 nM
[14]
  Papp B→A: 21.5 ×10⁻⁶ cm/s
[40]
  Ratio IC50: >1400
[41]
  AUC(0-t) at 24 h: 24.6 µM·h
[17]
  GI50: 4 nM
[42]
  Ratio IC50: 10
[18]
  GI50: 5 nM
[43]
  Ratio IC50: >1400
[44]
  Ratio IC50: >1400

## COc1cc(OC)c(/C=C/S(=O)(=O)Cc2ccc(OC)c([N+](=O)[O-])n2)c(OC)c1
[4]
  GI50: 9970 nM
[5]
  GI50: > 10000 nM
[18]
  GI50: > 10000 nM
